How the values were obtained:
Type in all cases: cell-based
[1] = tested on: NLRP3-dependent release of IL-1β; experiment: LPS/ATP-induced IL-1β release from differentiated THP1 cells overexpressing human THIK-1; conditions: 1 μM, THIK-1 overexpressing THP1 cells
Procedure: (§1) THP1 cells, obtained from ATCC, are monocytes isolated from peripheral blood of a leukaemia patient. THP1 cells were grown in RPMI 1640 supplemented with 10% fetal bovine serum (FBS, Hyclone), 1% PenStrep (Invitrogen), and 1% GlutaMax (Invitrogen), and 0.05 mM of 2-mercaptoethanol. To overexpress human THIK-1, THP1 cells were differentiated with 100 ng/ml PMA for 24 h prior to transfection with THIK-1 mRNA synthesized as described in the supplementary material. Cell suspensions (2.5 × 10^6 cells in […]) in the presence of 200 μg/ml mRNA were electroporated with the MaxCyte (STX instrument) in an OC-25 MaxCyte Electroporation cassette using manufacturer settings for THP1 cells. Cell suspensions were transferred to a 6-well plate and allowed to recover for 20 min at 37 °C. Cells were seeded into 384-well plates (10,000 cells/well) for thallium flux assays or 96-well plates (50,000 cells/well) for inflammasome assays the following day. Overexpressing and mock-transfected cells were primed with 100 ng/ml of LPS for 3.5 h prior to addition of compounds 30 min before stimulation with 5 mM ATP. Supernatants were collected 2 h after addition of ATP and stored at −20 °C until the detection of IL-1β.
IL-1β from culture supernatants was measured with DuoSet ELISA kit (R&D Systems) following the manufacturer instructions.

THIK-1 [2] = molecular target: T1, THIK-1 (Homo sapiens, UniProt Q9HB14); experiment: Thallium influx in human THIK-1 overexpressing differentiated THP1 cells; conditions: THIK-1 mRNA-transfected differentiated THP1 cells; read-out: IC50, block of thallium influx
T1 construct: expressed in transfected cells
T1 sequence (Q9HB14 1-408): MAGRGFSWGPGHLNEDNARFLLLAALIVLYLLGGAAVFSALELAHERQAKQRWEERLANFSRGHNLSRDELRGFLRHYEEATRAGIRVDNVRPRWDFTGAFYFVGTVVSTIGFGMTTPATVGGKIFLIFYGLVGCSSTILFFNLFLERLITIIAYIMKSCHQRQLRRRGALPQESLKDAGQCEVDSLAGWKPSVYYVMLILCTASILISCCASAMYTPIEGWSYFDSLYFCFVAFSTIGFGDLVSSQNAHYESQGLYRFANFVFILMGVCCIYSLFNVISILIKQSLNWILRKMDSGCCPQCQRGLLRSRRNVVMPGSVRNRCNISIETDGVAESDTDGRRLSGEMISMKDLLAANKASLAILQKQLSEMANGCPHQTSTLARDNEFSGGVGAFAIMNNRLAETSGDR
Procedure: as §1, with “Overexpressing and mock-transfected cells were primed with 100 ng/ml of LPS for 3.5 h prior to addition of compounds 30 min before stimulation with 5 mM ATP. Supernatants were collected 2 h after addition of ATP and stored at −20 °C until the detection of IL-1β.” left out
A fluorescence-based thallium influx assay (Molecular Devices potassium assay kit) was used to monitor channel activity. […] Using a fluorescent imaging plate reader (FLIPR) tetra plate reader, 15 μl thallium stimulus solution was added to the cell plate and the fluorescence signal recorded every second for 1 min (excitation: 470–495 nm, emission: 515–575 nm).

THIK-1 [3] = molecular target: T1, THIK-1; experiment: FLIPR thallium influx assay, HEK-hTHIK-1 cells; conditions: HEK-hTHIK-1, normalised to TPA controls; read-out: IC50, inhibition of THIK-1 constitutive activity (thallium influx)
Procedure: HEK-293 cells were transfected with human THIK-1, TREK-1, TWIK-2, or mouse THIK-1 cDNA cloned into pcDNA3.1, using either Fugene HD transfection reagent (Promega) or electroporation (MaxCyte STX instrument). Cells stably expressing the relevant genes were selected based on resistance to 500 μg/ml geneticin (Gibco). For human THIK-1 and TWIK-2 expressing cells, monoclonal lines were isolated by limited dilution cloning; mouse THIK-1 and human TREK-1 expressing cells were maintained as polyclonal pools. The HEK-293 pools and monoclones stably expressing the relevant genes were maintained in DMEM (Life Technologies), supplemented with 10% FCIII (HyClone, Fetal clone III) and 500 μg/ml geneticin. A CHO-Kv2.1 cell line was purchased from Millipore (accession NM_004975) and maintained in F12 (Life Technologies), supplemented with 10% FCSIII (Thermo Scientific) and 500 μg/ml geneticin (Life Technologies). For thallium flux assays, banks of frozen cell aliquots were prepared the day prior to assay, cells were thawed into media and seeded into PDL coated 384-well plates (Corning) at 25,000 (human/mouse THIK-1, TREK-1) or 30,000 (TWIK-2) cells/well (25 μl/well). CHO-Kv2.1 cells were seeded into non-PDL coated plates (Corning) at 5000 cells/well. Plated cells were incubated overnight at 37 °C, 5% CO2 in a humidified atmosphere. For Q-Patch assays, cells were cultured for 7 days prior to assay, dissociated, and diluted to 1–2.5 million/ml in EX-CELL ACF serum free media containing HEPES (25 mM; Life Technologies), penicillin/streptomycin (100 U/ml, 100 μg/ml; Life Technologies) and a trypsin inhibitor (0.04 mg/ml).
A fluorescence-based thallium influx assay (Molecular Devices potassium assay kit) was used to monitor channel activity. In brief, component A was reconstituted in 17 ml of chloride-free assay buffer (130 mM sodium D-gluconate, 5 mM potassium D-gluconate, 2 mM calcium D-gluconate, 1 mM magnesium D-gluconate, 5 mM NaHCO3, 20 mM HEPES; pH adjusted to 7.4 with NaOH and filtered (0.45 μm filter)) and component C reconstituted in 30 μl of DMSO. Components A and C were combined, and probenecid was added (Life Technologies; final assay concentration (FAC) 4.75 mM for HEK cell lines and 2.47 mM for CHO-Kv2.1) to provide the final dye solution. Media was removed from the cell plates and replaced with dye (20 μl/well) and the plates were incubated at room temperature in the dark for 60 min. On the day of the assay, a diluted compound plate (3x FAC in 1.5% DMSO) was created. Control wells contained either DMSO vehicle (1.5%, 3x FAC) or tetrapentylammonium chloride (TPA; Sigma, 258962; 1.5 mM in 1.5% DMSO, 3x FAC). A 3x thallium stimulation plate was also prepared, to provide a FAC of either 1 mM (human THIK-1) or 3 mM (mouse THIK-1, TREK-1, TWIK-2) thallium sulphate (in assay buffer). For Kv2.1, the FAC of thallium sulphate was 2.6 mM and this was prepared in assay buffer containing potassium sulphate (Sigma P9458; FAC 23.3 mM). Following 60 min of dye loading, 10 μl from the 3x FAC compound plate was added into the cell plate, which was then incubated for 15 min at room temperature in the dark. Using a fluorescent imaging plate reader (FLIPR) tetra plate reader, 15 μl thallium stimulus solution was added to the cell plate and the fluorescence signal recorded every second for 1 min (excitation: 470–495 nm, emission: 515–575 nm).

Row | SMILES | effect on ATP-stimulated IL-1β release [1] | IC50 (THIK-1 [2]) | IC50 (THIK-1 [3])
1 | CC(C)(O)c1coc(S(=O)(=O)NC(=O)Nc2c3c(cc4c2CCC4)CCC3)c1 [MCC950, reference compound] | completely blocked |  | 
2 | CCCCC[N+](CCCCC)(CCCCC)CCCCC [TPA, tetrapentylammonium chloride, reference compound] |  | 6.8 µM | 4.7 µM

— article PMC9841576, “Characterisation of C101248: A novel selective THIK-1 channel inhibitor for the modulation of microglial NLRP3-inflammasome” (Neuropharmacology, 2023)
